Experimental findings from US6465483B1, “Annelated dihydropyridines and the use thereof for preparing pharmaceutical preparations” (Boehringer Ingelheim GmbH, priority 1993, dated 2002) are described below.

The test system of one assay is RBL-2H3-cells. Nature of the assay: Antigen (DNP-BSA)-induced activation of sensitised RBL-2H3-cells, fluorometric cytoplasmic calcium measurement. It counts as cell-based, rat. To be noted: 10 μM. How it is done: Individual RBL-2H3-cells (a tumour cell line related to the mast cells) adhering to glass slides are used.
The cultivation and attachment of the RBL-2H3-cells are carried out by the method described by HIDE and BEAVEN (1991). In order to sensitise the adhesive RBL-2H3-cells the cells are incubated for 2 hours at ambient temperature with a 1:2000 diluted commercial gammaglobulin E-solution against a dinitrophenol-bovine serum albumin complex (DNP-BSA-antigen). The cells are then washed. By the addition of 0.1 ml of DNP-BSA-solution (10 μg/ml) there is a massive immunological cell activation which is mediated by a cytoplasmic Ca^2+-overload. The fluorometric calcium measurement in the cytoplasm of individual adhering RBL-2H3-cells is carried out analogously to the method described by KUDO and OGURA (1986) for neuronal cells, which is also explained hereinbefore in this specification.
The comparison used in these investigations is (10 μM) chromoglycate which brings about an approximately 50% inhibition of the antigen-induced cell activation.

Assay [1] relates to unselective cation channels (UCC). Nature of the assay: Inhibition of Ca2+ entry through unselective cation channels after Thapsigargin stimulation, fura-2-charged RBL-hm 1 cells. It counts as cell-based, rat. The following applies: Table 5, 0.1 μM Thapsigargin, test substance 10^−5 M.
Method: For screening purposes, fura-2-charged adhesive RBL-hm 1 cells are stimulated with 0.1 μM Thapsigargin in a Ca^2+-free incubation medium. After 4 minutes, extracellular Ca^2+ is restored to a concentration of 1.5 mM and, using the fura-2-fluorescence, the excessive increase in the cytoplasmic Ca^2+-concentration caused by a massive transmembranal Ca^2+-entry through unselective cation channels is recorded.
The kinetics of the cytoplasmic Ca^2+-concentration is recorded continuously as a concentration/time curve after the cell activation stimulated by Thapsigargin (0.1 μM). The curves of two activated cell cultures are compared in the presence and absence of 10 μM test substance. The area under these curves (area under the curve=AUC) is integrated and recorded as a measurement of cell activation. The inhibitory potency of the UCC-blockers tested is determined using the following equation: [formula]
AUCinh area under the curve recorded in the presence of the stimulant plus 10 μM inhibitory test substance.
AUC control=area under the curve which is recorded only after the addition of the stimulant.
The uniform concentration of the test substances is 10^−5 mol or 10^−6 mol)

With `O=C(O)c1cc(=O)c2c(OCC(O)COc3cccc4oc(C(=O)O)cc(=O)c34)cccc2o1` [chromoglycate], the “inhibition of the antigen-induced cell activation” value in the assay with RBL-2H3-cells is on record as “approximately 50%”.
As to `COc1cc2c(cc1OC)C(C(C(=O)N(Cc1ccccc1)Cc1ccccc1)c1ccsc1)=NCC2` (racemic) [(R,S)-(3,4-Dihydro-6,7-dimethoxyisoquinolin-1-yl)-2-(3-thienyl)-N,N-dibenzyl-acetamide], the “% H (10^−5 M), percentage inhibition of UCC after Thapsigargin stimulation” value in assay [1] came out at 90.9%.
